Reference: article PMC7224224, “Synthesis of diindolylmethane (DIM) bearing thiadiazole derivatives as a potent urease inhibitor” (Scientific Reports, 2020)

Legend:
[1] = target: jack bean urease (Canavalia ensiformis, UniProt P07374); assay: biochemical
Description: Urease is an enzyme (jack bean urease) that catalyzes the hydrolysis of urea into carbon dioxide and ammonia. The production of ammonia was measured by the indophenol method and used to determine the urease inhibitory activity[57],[58]. The percentage remaining activity was calculated from the formula % Remaining Activity = [(ODtest)/(ODcontrol) × 100]. Thiourea was used as a standard inhibitor. To calculate IC50 values, different concentrations of synthesized compounds and standards were assayed at the same reaction conditions.

Chain of jack bean urease (P07374 whole entry, looked up): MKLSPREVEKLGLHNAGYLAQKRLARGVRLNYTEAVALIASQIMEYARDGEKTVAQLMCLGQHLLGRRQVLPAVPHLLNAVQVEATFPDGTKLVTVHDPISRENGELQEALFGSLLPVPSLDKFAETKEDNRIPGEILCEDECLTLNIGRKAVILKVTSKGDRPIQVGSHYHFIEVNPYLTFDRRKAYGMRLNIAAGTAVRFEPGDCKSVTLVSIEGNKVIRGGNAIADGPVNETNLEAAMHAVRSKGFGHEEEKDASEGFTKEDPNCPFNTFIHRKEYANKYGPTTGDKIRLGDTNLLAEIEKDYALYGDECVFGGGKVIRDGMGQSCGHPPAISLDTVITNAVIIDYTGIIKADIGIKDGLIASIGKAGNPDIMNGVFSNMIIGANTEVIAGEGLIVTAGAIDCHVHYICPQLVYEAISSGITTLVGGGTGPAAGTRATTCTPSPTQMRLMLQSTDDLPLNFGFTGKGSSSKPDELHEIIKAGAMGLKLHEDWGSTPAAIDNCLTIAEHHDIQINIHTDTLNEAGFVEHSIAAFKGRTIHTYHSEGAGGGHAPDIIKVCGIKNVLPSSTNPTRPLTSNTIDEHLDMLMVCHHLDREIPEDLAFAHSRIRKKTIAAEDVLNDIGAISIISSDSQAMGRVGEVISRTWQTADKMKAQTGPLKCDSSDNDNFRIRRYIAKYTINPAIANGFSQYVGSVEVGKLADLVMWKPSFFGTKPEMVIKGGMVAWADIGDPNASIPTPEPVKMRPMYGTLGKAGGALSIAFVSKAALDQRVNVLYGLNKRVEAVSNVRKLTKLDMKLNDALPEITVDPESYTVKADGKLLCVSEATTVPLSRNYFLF

Structure (SMILES) | melting point | IC50 [1]
O=S(=O)(Nc1nnc(-c2ccc(C(c3c[nH]c4ccc(Br)cc34)c3c[nH]c4ccc(Br)cc34)cc2)s1)c1ccc2ccccc2c1 [Compound 11, N-(5-(4-(bis(5-bromo-1H-indol-3-yl)methyl)phenyl)-1,3,4-thiadiazol-2-yl)naphthalene-2-sulfonamide] | 313 to 314 °C | 33.2 ± 1.2 µM
O=S(=O)(Nc1nnc(-c2ccc(C(c3c[nH]c4ccc(Br)cc34)c3c[nH]c4ccc(Br)cc34)cc2)s1)c1ccc(Cl)c(Cl)c1 [Compound 10, N-(5-(4-(bis(5-bromo-1H-indol-3-yl)methyl)phenyl)-1,3,4-thiadiazol-2-yl)-3,4-dichlorobenzenesulfonamide] | 302 to 303 °C | 1.6 ± 0.01 µM
COc1ccc(O)c(S(=O)(=O)Nc2nnc(-c3ccc(C(c4c[nH]c5ccc(Br)cc45)c4c[nH]c5ccc(Br)cc45)cc3)s2)c1 [Compound 4, N-(5-(4-(bis(5-bromo-1H-indol-3-yl)methyl)phenyl)-1,3,4-thiadiazol-2-yl)-2-hydroxy-5-methoxybenzenesulfonamide] |  | 2.2 ± 0.1 µM
Cc1ccc(Cl)c(S(=O)(=O)Nc2nnc(-c3ccc(C(c4c[nH]c5ccc(Br)cc45)c4c[nH]c5ccc(Br)cc45)cc3)s2)c1 [Compound 12, N-(5-(4-(bis(5-bromo-1H-indol-3-yl)methyl)phenyl)-1,3,4-thiadiazol-2-yl)-2-chloro-5-methylbenzenesulfonamide] | 301 to 302 °C | 8.5 ± 0.3 µM
Cc1ccccc1S(=O)(=O)Nc1nnc(-c2ccc(C(c3c[nH]c4ccc(Br)cc34)c3c[nH]c4ccc(Br)cc34)cc2)s1 [Compound 16, N-(5-(4-(bis(5-bromo-1H-indol-3-yl)methyl)phenyl)-1,3,4-thiadiazol-2-yl)-2-methylbenzenesulfonamide] | 291 to 292 °C | 23.8 ± 1 µM
O=S(=O)(Nc1nnc(-c2ccc(C(c3c[nH]c4ccc(Br)cc34)c3c[nH]c4ccc(Br)cc34)cc2)s1)c1ccc(Cl)cc1Cl [Compound 7, N-(5-(4-(bis(5-bromo-1H-indol-3-yl)methyl)phenyl)-1,3,4-thiadiazol-2-yl)-2,4-dichlorobenzenesulfonamide] |  | 2.3 ± 0.1 µM
O=[N+]([O-])c1ccccc1S(=O)(=O)Nc1nnc(-c2ccc(C(c3c[nH]c4ccc(Br)cc34)c3c[nH]c4ccc(Br)cc34)cc2)s1 [Compound 3, N-(5-(4-(bis(5-bromo-1H-indol-3-yl)methyl)phenyl)-1,3,4-thiadiazol-2-yl)-2-nitrobenzenesulfonamide] | 314 to 315 °C | 1.1 ± 0.01 µM
COc1ccc(Br)c(S(=O)(=O)Nc2nnc(-c3ccc(C(c4c[nH]c5ccc(Br)cc45)c4c[nH]c5ccc(Br)cc45)cc3)s2)c1 [Compound 14, N-(5-(4-(bis(5-bromo-1H-indol-3-yl)methyl)phenyl)-1,3,4-thiadiazol-2-yl)-2-bromo-5-methoxybenzenesulfonamide] | 309 to 310 °C | 19.8 ± 0.8 µM
Cc1cccc(S(=O)(=O)Nc2nnc(-c3ccc(C(c4c[nH]c5ccc(Br)cc45)c4c[nH]c5ccc(Br)cc45)cc3)s2)c1 [Compound 17, N-(5-(4-(bis(5-bromo-1H-indol-3-yl)methyl)phenyl)-1,3,4-thiadiazol-2-yl)-3-methylbenzenesulfonamide] | 289 to 290 °C | 28.6 ± 1.2 µM
O=[N+]([O-])c1ccc(S(=O)(=O)Nc2nnc(-c3ccc(C(c4c[nH]c5ccc(Br)cc45)c4c[nH]c5ccc(Br)cc45)cc3)s2)c([N+](=O)[O-])c1 [Compound 8, N-(5-(4-(bis(5-bromo-1H-indol-3-yl)methyl)phenyl)-1,3,4-thiadiazol-2-yl)-2,4-dinitrobenzenesulfonamide] |  | 0.5 ± 0.01 µM
O=S(=O)(Nc1nnc(-c2ccc(C(c3c[nH]c4ccc(Br)cc34)c3c[nH]c4ccc(Br)cc34)cc2)s1)c1cc(Cl)c(Cl)cc1Cl [Compound 6, N-(5-(4-(bis(5-bromo-1H-indol-3-yl)methyl)phenyl)-1,3,4-thiadiazol-2-yl)-2,4,5-trichlorobenzenesulfonamide] | 299 to 300 °C | 0.7 ± 0.01 µM
O=S(=O)(Nc1nnc(-c2ccc(C(c3c[nH]c4ccc(Br)cc34)c3c[nH]c4ccc(Br)cc34)cc2)s1)c1ccccc1 [Compound 1, N-(5-(4-(bis(5-bromo-1H-indol-3-yl)methyl)phenyl)-1,3,4-thiadiazol-2-yl)benzenesulfonamide] | 301 to 302 °C | 13.2 ± 0.3 µM
O=[N+]([O-])c1ccc(S(=O)(=O)Nc2nnc(-c3ccc(C(c4c[nH]c5ccc(Br)cc45)c4c[nH]c5ccc(Br)cc45)cc3)s2)cc1Cl [Compound 9, N-(5-(4-(bis(5-bromo-1H-indol-3-yl)methyl)phenyl)-1,3,4-thiadiazol-2-yl)-3-chloro-4-nitrobenzenesulfonamide] | 318 to 319 °C | 1.1 ± 0.01 µM
O=[N+]([O-])c1ccc(S(=O)(=O)Nc2nnc(-c3ccc(C(c4c[nH]c5ccc(Br)cc45)c4c[nH]c5ccc(Br)cc45)cc3)s2)cc1 [Compound 2, N-(5-(4-(bis(5-bromo-1H-indol-3-yl)methyl)phenyl)-1,3,4-thiadiazol-2-yl)-4-nitrobenzenesulfonamide] | 312 to 313 °C | 1.8 ± 0.01 µM
Cc1ccc([N+](=O)[O-])c(S(=O)(=O)Nc2nnc(-c3ccc(C(c4c[nH]c5ccc(Br)cc45)c4c[nH]c5ccc(Br)cc45)cc3)s2)c1 [Compound 13, N-(5-(4-(bis(5-bromo-1H-indol-3-yl)methyl)phenyl)-1,3,4-thiadiazol-2-yl)-5 methyl-2-nitrobenzenesulfonamide] | 312 to 313 °C | 5.1 ± 0.1 µM
COc1ccc([N+](=O)[O-])c(S(=O)(=O)Nc2nnc(-c3ccc(C(c4c[nH]c5ccc(Br)cc45)c4c[nH]c5ccc(Br)cc45)cc3)s2)c1 [Compound 15, N-(5-(4-(bis(5-bromo-1H-indol-3-yl)methyl)phenyl)-1,3,4-thiadiazol-2-yl)-5-methoxy-2-nitrobenzenesulfonamide] | 308 to 309 °C | 3.9 ± 0.1 µM
COc1ccc(Cl)cc1S(=O)(=O)Nc1nnc(-c2ccc(C(c3c[nH]c4ccc(Br)cc34)c3c[nH]c4ccc(Br)cc34)cc2)s1 [Compound 5, N-(5-(4-(bis(5-bromo-1H-indol-3-yl)methyl)phenyl)-1,3,4-thiadiazol-2-yl)-5-chloro-2-methoxybenzenesulfonamide] | 315 to 316 °C | 7.3 ± 0.1 µM
Cc1ccc(S(=O)(=O)Nc2nnc(-c3ccc(C(c4c[nH]c5ccc(Br)cc45)c4c[nH]c5ccc(Br)cc45)cc3)s2)cc1 [Compound 18, N-(5-(4-(bis(5-bromo-1H-indol-3-yl)methyl)phenyl)-1,3,4-thiadiazol-2-yl)-4-methylbenzenesulfonamide] | 285 to 286 °C | 20.4 ± 1.2 µM
